# According to publication PMC10143822, “Structural Adaptation of the Single-Stranded DNA-Binding Protein C-Terminal to DNA Metabolizing Partners Guides Inhibitor Design” (Pharmaceutics, 2023):
# Where a SMILES comes first, the peptide text is derived from it. [ ]: non-standard residue; d: D form. Phe(4-CF3) = N[C@@H](Cc1ccc(C(F)(F)F)cc1)C(=O)O; NMeF = CN[C@@H](Cc1ccccc1)C(=O)O; β3hI = CC[C@H](C)[C@H](N)CC(=O)O; 3Pal = N[C@@H](Cc1cccnc1)C(=O)O; Tic = O=C(O)[C@@H]1Cc2ccccc2CN1; NMeD = CN[C@@H](CC(=O)O)C(=O)O; β3hD = NC(CC(=O)O)CC(=O)O
# Key:
# ExoI [1] = target: T1, ExoI (Escherichia coli, UniProt P04995); assay: biochemical; format: binding, E. coli
# T1 construct: His-tag (cleaved yes); host or cells: E. coli BL21 (DE3) pLysS
# T1 sequence (P04995 whole entry): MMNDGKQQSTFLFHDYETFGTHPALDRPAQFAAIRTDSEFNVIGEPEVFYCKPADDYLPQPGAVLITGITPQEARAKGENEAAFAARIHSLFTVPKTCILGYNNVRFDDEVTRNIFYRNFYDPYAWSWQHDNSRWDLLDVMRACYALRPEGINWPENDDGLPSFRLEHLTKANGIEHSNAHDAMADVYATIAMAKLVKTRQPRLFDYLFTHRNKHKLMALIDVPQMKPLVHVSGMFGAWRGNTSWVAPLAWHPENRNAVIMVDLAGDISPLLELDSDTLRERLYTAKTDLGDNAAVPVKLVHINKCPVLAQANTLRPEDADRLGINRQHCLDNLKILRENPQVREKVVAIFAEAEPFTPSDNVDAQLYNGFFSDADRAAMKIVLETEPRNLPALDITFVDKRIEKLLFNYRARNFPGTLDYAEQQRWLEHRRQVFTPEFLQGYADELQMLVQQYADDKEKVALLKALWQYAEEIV
# Procedure: (§1) Triplicate measurements were performed using a Clariostar Plus Microplate Reader in 384-well plates for all fluorescence anisotropy (FA) experiments. The settings were 25 °C, excitation at 485 nm, emission at 510 nm, settling time of 0.2 s, and 200 flashes per well.
# (§2) Competition fluorescence anisotropy experiments were carried out as follows: protein (0.5 μM either ExoI or RecO) was incubated with 50 nM F-wtSSB peptide and 0–500 μM unlabeled wtSSB (or a variant) peptide for 30 min at room temperature. For direct fluorescence anisotropy measurements, 16 µM ExoI and 7.5 µM RecO were used in the first well. After serial dilution, either 50 nM of F-mSSB or F-sSSB was added to the wells and then incubated for 30 min. Buffers used included 20 mM Tris-HCl (pH 8.0), 100 mM NaCl, 1 mM MgCl2, 1 mM 2-mercaptoethanol, 10% (v/v) glycerol, for ExoI and 20 mM Tris-HCl (pH 8.0), 200 mM NaCl, 1 mM 2-mercaptoethanol, 10% (v/v) glycerol, and 0.01% Triton-X 100 for RecO [37].
# (§3) Fluorescence anisotropy values were normalized and are shown as bound fractions (BF, %). BF=r−rmin/λ(rmax−r)+r−rmin, I=2∗PG+S, r=S−PG/I, where r: anisotropy, I: total intensity, P: perpendicular intensity, S: parallel intensity, G: an instrument factor set to 1, BF: ligand fraction bound, and λ=λbound/λunbound=1 .
# (§4) Competitive fluorescence anisotropy was analyzed in Origin Pro 9.5, and IC50 values were determined using the Logistic Nonlinear fit function and are shown as plots for each mutated position for each protein in Figures S4 and S6. EC50 values from direct fluorescence anisotropy titrations were plotted in Origin 9.5. Values were determined using the Logistics Nonlinear fit function.
# ExoI [2] = target: T1, ExoI; assay: Isothermal titration calorimetry with ExoI; format: binding, E. coli
# Procedure: Isothermal titration calorimetry (ITC) experiments were performed using a MicroCal VP-ITC titration microcalorimeter. ExoI was dialyzed extensively against the indicated buffer and cleared through centrifugation at 14,000 rpm for 15 min at 4 °C. RecO was subjected to a quick buffer exchange using an Amicon Ultra ultrafiltration device (Sigma). Protein concentrations were determined after the buffer exchange procedure.
# The raw data were integrated using NITPIC [39]. The binding parameters, association equilibrium constant (KA), binding enthalpy (ΔH), and binding entropy (ΔS) were obtained by fitting the titration curves to a model of A + B = C in SEDPHAT [40]. Stoichiometry was fixed to 1:1 and the incompetent fraction was fitted for the protein concentration.
# RecO = target: T2, RecO (Escherichia coli, UniProt P0A7H3); assay: biochemical; format: binding; conditions: 0.5 μM RecO, 50 nM F-wtSSB tracer, 0–500 μM unlabeled peptide, 30 min room temperature; 20 mM Tris-HCl pH 8.0, 200 mM NaCl, 10% glycerol, 0.01% Triton-X 100; 25 °C; triplicate; read-out: IC50 on RecO, competitive fluorescence anisotropy
# T2 construct: His-tag (TEV site) (N, cleaved yes); made in house; host or cells: E. coli Rosetta cells
# T2 sequence (P0A7H3 whole entry): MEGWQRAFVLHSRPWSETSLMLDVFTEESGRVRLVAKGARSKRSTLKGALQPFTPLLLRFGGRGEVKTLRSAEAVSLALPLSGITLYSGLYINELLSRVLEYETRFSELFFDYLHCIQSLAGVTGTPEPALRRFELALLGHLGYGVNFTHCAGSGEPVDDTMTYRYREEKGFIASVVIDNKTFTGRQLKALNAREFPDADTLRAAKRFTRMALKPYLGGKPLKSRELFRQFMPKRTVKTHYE
# Procedure: as §1, §2, §3, §4
SMILES,IC50 (ExoI [1]),Kd (ExoI [2]),IC50 (RecO)
CC[C@H](C)[C@H](NC(=O)[C@H](CC(=O)O)NC(=O)[C@H](CC(=O)O)NC(=O)[C@H](CC(=O)O)NC(=O)[C@H](Cc1ccc(C(F)(F)F)cc1)NC(=O)[C@H](CC(=O)O)NC(C)=O)C(=O)N1CCC[C@H]1C(=O)N[C@@H](Cc1ccc(C(F)(F)F)cc1)C(=O)O [E2-sSSB-Ct] (Ac-D[Phe(4-CF3)]DDDIP[Phe(4-CF3)]-OH),0.35 µM,0.04 µM,–
CC[C@H](C)[C@@H](CC(=O)N1CCC[C@H]1C(=O)N[C@@H](Cc1ccccc1)C(=O)O)NC(=O)[C@H](CC(=O)O)NC(=O)[C@H](CC(=O)O)NC(=O)[C@H](CC(=O)O)NC(=O)[C@H](Cc1ccccc1)NC(=O)[C@H](CC(=O)O)NC(C)=O [β3-Ile6] (Ac-DFDDD[β3hI]PF-OH),11.28 ± 0.03 µM,–,19.2 ± 7.47 µM
CC[C@H](C)[C@H](NC(=O)[C@H](CC(=O)O)NC(=O)[C@H](CC(=O)O)NC(=O)[C@H](CC(=O)O)NC(=O)[C@@H]1Cc2ccccc2CN1C(=O)[C@H](CC(=O)O)NC(C)=O)C(=O)N1CCC[C@H]1C(=O)N[C@@H](Cc1ccccc1)C(=O)O [Tic2] (Ac-D[Tic]DDDIPF-OH),6.6 ± 0.55 µM,–,3.99 ± 0.1 µM
CC[C@H](C)[C@H](NC(=O)[C@H](CC(=O)O)NC(=O)[C@H](CC(=O)O)NC(=O)[C@H](CC(=O)O)NC(=O)[C@H](Cc1ccccc1)NC(=O)[C@H](CC(=O)O)NC(C)=O)C(=O)N1CCC[C@H]1C(=O)N1Cc2ccccc2C[C@H]1C(=O)O [Tic8] (Ac-DFDDDIP[Tic]-OH),96.1 ± 83.8 µM,–,141 ± 8.37 µM
CC[C@H](C)[C@H](NC(=O)[C@H](CC(=O)O)NC(=O)C[C@H](CC(=O)O)NC(=O)[C@H](CC(=O)O)NC(=O)[C@H](Cc1ccccc1)NC(=O)[C@H](CC(=O)O)NC(C)=O)C(=O)N1CCC[C@H]1C(=O)N[C@@H](Cc1ccccc1)C(=O)O [β3-Asp4] (Ac-DFD[β3hD]DIPF-OH),1.54 ± 0.13 µM,–,19.6 ± 2.78 µM
CC[C@H](C)[C@H](NC(=O)[C@H](CC(=O)O)NC(=O)[C@H](CC(=O)O)N(C)C(=O)[C@H](CC(=O)O)NC(=O)[C@H](Cc1ccccc1)NC(=O)[C@H](CC(=O)O)NC(C)=O)C(=O)N1CCC[C@H]1C(=O)N[C@@H](Cc1ccccc1)C(=O)O [NM-Asp4] (Ac-DFD[NMeD]DIPF-OH),1.27 ± 0.14 µM,–,3.85 ± 1.03 µM
CC[C@H](C)[C@H](NC(=O)[C@H](CC(=O)O)NC(=O)[C@H](CC(=O)O)NC(=O)[C@H](CC(=O)O)NC(=O)[C@H](Cc1cccnc1)NC(=O)[C@H](CC(=O)O)NC(C)=O)C(=O)N1CCC[C@H]1C(=O)N[C@@H](Cc1ccccc1)C(=O)O [3Pal2] (Ac-D[3Pal]DDDIPF-OH),7.47 ± 0.88 µM,–,11.7 ± 0.8 µM
CC[C@H](C)[C@H](NC(=O)[C@H](CC(=O)O)NC(=O)[C@H](CC(=O)O)NC(=O)[C@H](CC(=O)O)NC(=O)[C@H](Cc1ccccc1)NC(=O)C[C@H](CC(=O)O)NC(C)=O)C(=O)N1CCC[C@H]1C(=O)N[C@@H](Cc1ccccc1)C(=O)O [β3-Asp1] (Ac-[β3hD]FDDDIPF-OH),4.47 ± 0.25 µM,–,8.03 ± 0.4 µM
CC[C@H](C)[C@H](NC(=O)[C@H](CC(=O)O)N(C)C(=O)[C@H](CC(=O)O)NC(=O)[C@H](CC(=O)O)NC(=O)[C@H](Cc1ccccc1)NC(=O)[C@H](CC(=O)O)NC(C)=O)C(=O)N1CCC[C@H]1C(=O)N[C@@H](Cc1ccccc1)C(=O)O [NM-Asp5] (Ac-DFDD[NMeD]IPF-OH),9.3 ± 0.66 µM,–,9.33 ± 4.3 µM
CC[C@H](C)[C@H](NC(=O)[C@H](CC(=O)O)NC(=O)[C@H](CC(=O)O)NC(=O)[C@H](CC(=O)O)NC(=O)[C@H](Cc1ccccc1)N(C)C(=O)[C@H](CC(=O)O)NC(C)=O)C(=O)N1CCC[C@H]1C(=O)N[C@@H](Cc1ccccc1)C(=O)O [NM-Phe2] (Ac-D[NMeF]DDDIPF-OH),5.37 ± 0.53 µM,–,3.33 ± 0.35 µM
